Measured values: paper PMC12613848, “First in human phase 1 study of DT2216, a selective BCL-xL degrader, in patients with relapsed/refractory solid malignancies” (Journal of Hematology & Oncology, 2025)
“Also recorded” adds a separate entry of the source. Read-outs that look alike come from different tables or passages of the source.

Experiment: Plasma pharmacokinetics of DT2216 in patients, phase 1 dose escalation
Type: in vivo, human
Details: for ArAUC0−24 (accumulation ratio) / Vd / clearance / half-life / AUC(0-t) / AUC(0-inf) / Cmax / Tmax: plasma; for Vd / clearance / half-life / AUC(0-t) / AUC(0-inf) / Cmax / Tmax: human; for AUC(0-inf): read-out: AUC0−∞; for Cmax: read-out: Cmax; for Tmax: median (min, max)
Procedure: Dose escalation consisted of the administration of DT2216 intravenously twice weekly at several different doses outlined in protocol attached. The starting dose was 0.04 mg/kg, established based on pre-clinical toxicity studies. Safety was evaluated using CTCAE version 5.0. The initial three dose levels enrolled one patient, following which for dose level 4 and 5, a 3 + 3 design was utilized following a 100% incremental dose increase for dose levels 2 to 5 until the first dose limiting toxicity (DLT) in cycle 1 was observed. Thereafter, a modified Fibonacci sequence was used to define dose escalation increments until the maximum tolerated dose (MTD) was reached as described in protocol. If no dose-limiting toxicity (DLT) was observed during the DLT monitoring period of first 28 days, the next patient was enrolled at the next higher dose level. Dose-limiting toxicities (DLTs) during the first treatment cycle were defined as any Grade 5 toxicity; Grade 4 neutropenia lasting > 7 days; febrile neutropenia; Grade 4 thrombocytopenia or Grade 3 thrombocytopenia with clinically significant hemorrhage or lasting ≥ 7 days; and Grade ≥ 3 non-hematologic toxicities, excluding nausea, vomiting, or diarrhea lasting ≤ 3 days or transient laboratory abnormalities resolving within 72 h. Hepatotoxicity meeting Hy’s law criteria was also considered a DLT. Transient Grade 3–4 electrolyte abnormalities resolving to ≤ Grade 2 within 72 h were not considered DLTs.
Patients were allowed a maximum of two intra-patient dose escalations. Patients received DT2216 by intravenous infusion on days 1 and 4 weekly for at least 4 weeks, with each cycle consisting of a 28-day cycle for a maximum duration of 1 year until disease progression, unacceptable toxicity, or other withdrawal criteria, as listed in the protocol. The extent of disease was evaluated using imaging studies and disease-appropriate tumor markers every 8 weeks from day 1 of the first cycle. RP2D was established based on MTD as well as other relevant data, including clinical signals of activity, PK, and PD data.
Premedication prior to each infusion was at the discretion of the investigator or according to institutional guidelines. Patient assessment and follow-up procedures can be found in the schedule of assessments in this study. The clinical response was evaluated using RECIST v1.1 per protocol. Blood samples were collected for PK analysis before and after post-infusion at defined intervals, along with platelet counts. Exploratory biomarkers include (but are not limited to) the assessment of BCL-XL and VHL levels in peripheral white blood cells (WBC).
Throughout the course of the dose escalation trial, only one dose-limiting toxicity was observed, with grade 4 thrombocytopenia at a dose level of 0.32 mg/kg. […] The pharmacokinetic parameters of DT2216 were determined in patients following doses on Cycle 1 Day 1 and Cycle 1 Day 22 (Tables 4 and 5). […] AUC0-∞ values ranged from 8650 to 72,300 ng · h/mL over the dose range of 0.04 mg/kg 0.4 mg/kg. […] The volume of distribution at steady state (Vss) was small (< 100 mL/kg) and consistent across the dose groups. Following repeated dosing, accumulation of DT2216 in plasma was not observed with twice weekly dosing, with accumulation ratio values ranging from 0.74 to 1.07 on Cycle 1 Day 22 ([…]) across the dose groups.

[1] = iv, 0.04 mg/kg, Cycle 1 Day 1, 0.04 mg/kg IV, mean (CV%), N = 1
[2] = iv, 0.04 mg/kg, Cycle 1 Day 22, 0.04 mg/kg IV BIW, mean (CV%), N = 1
[3] = iv, 0.08 mg/kg, Cycle 1 Day 1, 0.08 mg/kg IV, mean (CV%), N = 1
[4] = iv, 0.08 mg/kg, Cycle 1 Day 22, 0.08 mg/kg IV BIW, mean (CV%), N = 1
[5] = iv, 0.12 mg/kg, Cycle 1 Day 1, 0.12 mg/kg IV, mean (CV%), N = 1

Cc1ncsc1-c1ccc([C@H](C)NC(=O)[C@@H]2C[C@@H](O)CN2C(=O)[C@@H](NC(=O)CCCCCC(=O)N2CCN(CC[C@H](CSc3ccccc3)Nc3ccc(S(=O)(=O)NC(=O)c4ccc(N5CCN(CC6=C(c7ccc(Cl)cc7)CCC(C)(C)C6)CC5)cc4)cc3S(=O)(=O)C(F)(F)F)CC2)C(C)(C)C)cc1 [DT2216]
dose proportionality of plasma exposure (AUC) (0.04 to 0.4 mg/kg IV BIW): dose proportional with no dose accumulation; also recorded: dose proportional increase in DT2216 exposure
maximum concentration (0.4 BIW dose): 8590 ng/mL
ArAUC0−24 (accumulation ratio) (Cycle 1 Day 22, 0.04 mg/kg IV BIW, mean (CV%), N = 1): 0.90 (N = 1)
ArAUC0−24 (accumulation ratio) (Cycle 1 Day 22, 0.08 mg/kg IV BIW, mean (CV%), N = 1): 0.74 (N = 1)
ArAUC0−24 (accumulation ratio) (Cycle 1 Day 22, 0.12 mg/kg IV BIW, mean (CV%), N = 1): 1.07 (N = 1)
ArAUC0−24 (accumulation ratio) (Cycle 1 Day 22, 0.24 mg/kg IV BIW, mean (CV%), N = 6): 1.08 (11.6) (N = 6)
ArAUC0−24 (accumulation ratio) (Cycle 1 Day 22, 0.32 mg/kg IV BIW, mean (CV%), N = 5): 1.02 (6.7) (N = 5)
ArAUC0−24 (accumulation ratio) (Cycle 1 Day 22, 0.4 mg/kg IV BIW, mean (CV%), N = 4): 1.01 (8.7) (N = 4)
steady state of plasma concentration (based on pre-dose and 2-hour post infusion plasma concentrations): reached by at least Cycle 1, Day 15
Vd (intravenous, consistent across the dose groups, read-out: volume of distribution at steady state (Vss)): < 0.1 L/kg
clearance (intravenous, over the dose range tested, read-out: clearance values): 0.0683 to 0.132 mL/min/kg
half-life (intravenous, over the dose range tested, independent of dose, read-out: mean half-life): 7.09 to 12.8 h
AUC(0-t) (iv, 0.04 mg/kg, Cycle 1 Day 1, 0.04 mg/kg IV, mean (CV%), N = 1, read-out: AUC0−24): 5.92 µg·h/mL
AUC(0-inf) [1]: 8.65 µg·h/mL
AUC(0-t) (iv, 0.04 mg/kg, Cycle 1 Day 1, 0.04 mg/kg IV, mean (CV%), N = 1, read-out: AUClast): 8.47 µg·h/mL
clearance (iv, 0.04 mg/kg, Cycle 1 Day 1, 0.04 mg/kg IV, mean (CV%), N = 1, read-out: CL (converted)): 0.077 mL/min/kg
Cmax [1]: 0.738 µg/mL
half-life (iv, 0.04 mg/kg, Cycle 1 Day 1, 0.04 mg/kg IV, mean (CV%), N = 1, read-out: T½ (converted)): 12.8 h
Vd (iv, 0.04 mg/kg, Cycle 1 Day 1, 0.04 mg/kg IV, mean (CV%), N = 1, read-out: Vdss): 0.0776 L/kg
Tmax (iv, 0.04 mg/kg, Cycle 1 Day 1, 0.04 mg/kg IV, N = 1): 0.75 h
AUC(0-t) (iv, 0.04 mg/kg, Cycle 1 Day 22, 0.04 mg/kg IV BIW, mean (CV%), N = 1, read-out: AUC0−24): 5.35 µg·h/mL
AUC(0-inf) [2]: 6.23 µg·h/mL
AUC(0-t) (iv, 0.04 mg/kg, Cycle 1 Day 22, 0.04 mg/kg IV BIW, mean (CV%), N = 1, read-out: AUClast): 5.39 µg·h/mL
clearance (iv, 0.04 mg/kg, Cycle 1 Day 22, 0.04 mg/kg IV BIW, mean (CV%), N = 1, read-out: CL (converted)): 0.107 mL/min/kg
Cmax [2]: 0.541 µg/mL
half-life (iv, 0.04 mg/kg, Cycle 1 Day 22, 0.04 mg/kg IV BIW, mean (CV%), N = 1, read-out: T½ (converted)): 8.18 h
Vd (iv, 0.04 mg/kg, Cycle 1 Day 22, 0.04 mg/kg IV BIW, mean (CV%), N = 1, read-out: Vdss): 0.081 L/kg
Tmax (iv, 0.04 mg/kg, Cycle 1 Day 22, 0.04 mg/kg IV BIW, N = 1): 2.5 h
AUC(0-t) (iv, 0.08 mg/kg, Cycle 1 Day 1, 0.08 mg/kg IV, mean (CV%), N = 1, read-out: AUC0−24): 13.4 µg·h/mL
AUC(0-inf) [3]: 19.5 µg·h/mL
AUC(0-t) (iv, 0.08 mg/kg, Cycle 1 Day 1, 0.08 mg/kg IV, mean (CV%), N = 1, read-out: AUClast): 19.1 µg·h/mL
clearance (iv, 0.08 mg/kg, Cycle 1 Day 1, 0.08 mg/kg IV, mean (CV%), N = 1, read-out: CL (converted)): 0.0683 mL/min/kg
Cmax [3]: 1.45 µg/mL
half-life (iv, 0.08 mg/kg, Cycle 1 Day 1, 0.08 mg/kg IV, mean (CV%), N = 1, read-out: T½ (converted)): 12.5 h
Vd (iv, 0.08 mg/kg, Cycle 1 Day 1, 0.08 mg/kg IV, mean (CV%), N = 1, read-out: Vdss): 0.07 L/kg
Tmax (iv, 0.08 mg/kg, Cycle 1 Day 1, 0.08 mg/kg IV, N = 1): 1.5 h
AUC(0-t) (iv, 0.08 mg/kg, Cycle 1 Day 22, 0.08 mg/kg IV BIW, mean (CV%), N = 1, read-out: AUC0−24): 9.84 µg·h/mL
AUC(0-inf) [4]: 11.7 µg·h/mL
AUC(0-t) (iv, 0.08 mg/kg, Cycle 1 Day 22, 0.08 mg/kg IV BIW, mean (CV%), N = 1, read-out: AUClast): 9.91 µg·h/mL
clearance (iv, 0.08 mg/kg, Cycle 1 Day 22, 0.08 mg/kg IV BIW, mean (CV%), N = 1, read-out: CL (converted)): 0.114 mL/min/kg
Cmax [4]: 0.962 µg/mL
half-life (iv, 0.08 mg/kg, Cycle 1 Day 22, 0.08 mg/kg IV BIW, mean (CV%), N = 1, read-out: T½ (converted)): 8.63 h
Vd (iv, 0.08 mg/kg, Cycle 1 Day 22, 0.08 mg/kg IV BIW, mean (CV%), N = 1, read-out: Vdss): 0.091 L/kg
Tmax (iv, 0.08 mg/kg, Cycle 1 Day 22, 0.08 mg/kg IV BIW, N = 1): 2.5 h
AUC(0-t) (iv, 0.12 mg/kg, Cycle 1 Day 1, 0.12 mg/kg IV, mean (CV%), N = 1, read-out: AUC0−24): 12.9 µg·h/mL
AUC(0-inf) [5]: 18 µg·h/mL
AUC(0-t) (iv, 0.12 mg/kg, Cycle 1 Day 1, 0.12 mg/kg IV, mean (CV%), N = 1, read-out: AUClast): 17.9 µg·h/mL
clearance (iv, 0.12 mg/kg, Cycle 1 Day 1, 0.12 mg/kg IV, mean (CV%), N = 1, read-out: CL (converted)): 0.111 mL/min/kg
Cmax [5]: 3.71 µg/mL
half-life (iv, 0.12 mg/kg, Cycle 1 Day 1, 0.12 mg/kg IV, mean (CV%), N = 1, read-out: T½ (converted)): 8.92 h
Vd (iv, 0.12 mg/kg, Cycle 1 Day 1, 0.12 mg/kg IV, mean (CV%), N = 1, read-out: Vdss): 0.0557 L/kg
Tmax (iv, 0.12 mg/kg, Cycle 1 Day 1, 0.12 mg/kg IV, N = 1): 0.75 h
AUC(0-t) (iv, 0.12 mg/kg, Cycle 1 Day 22, 0.12 mg/kg IV BIW, mean (CV%), N = 1, read-out: AUC0−24): 13.9 µg·h/mL
AUC(0-inf) (iv, 0.12 mg/kg, Cycle 1 Day 22, 0.12 mg/kg IV BIW, mean (CV%), N = 1): 14.5 µg·h/mL
AUC(0-t) (iv, 0.12 mg/kg, Cycle 1 Day 22, 0.12 mg/kg IV BIW, mean (CV%), N = 1, read-out: AUClast): 13.9 µg·h/mL
